Data set [1] is described as follows: Selectivity index, ratio of IC50 for African green monkey Vero cells to IC50 for Plasmodium falciparum. Format: toxicity, cell-based. The conditions noted are these: read-out: Ratio IC50.
For data set [2], the system named is Plasmodium falciparum. The experiment in a line: Antiplasmodial activity against chloroquine-sensitive Plasmodium falciparum 3D7 after 72 hrs by SYBR Green-1 dye-based fluorescence assay. Type of data set: functional, organism-based. The conditions noted are these: 3D7, 72 h.
Data set [3] deals with Plasmodium yoelii. The experiment in a line: Antimalarial activity against chloroquine-resistant Plasmodium yoelii N-67 infected in Swiss mouse assessed as mouse survival at 100 mg/kg, po qd for 4 days measured on day 28. Type of data set: functional, organism-based. Further details: dose 100 mg/kg.
The test system of data set [4] is Plasmodium yoelii. The experiment in a line: Inhibition of beta-hematin formation in Plasmodium yoelii infected Swiss mouse plasma after 16 hrs. Format: functional.
Data set [5] has as its system Plasmodium yoelii. Kind of data set: Antimalarial activity against chloroquine-resistant Plasmodium yoelii N-67 infected in Swiss mouse assessed as inhibition of parasitemia at 100 mg/kg, po qd for 4 days relative to control. Type of data set: functional. The conditions noted are these: N-67, 96 h.
Data set [6] deals with Plasmodium falciparum. The experiment in a line: Antiplasmodial activity against chloroquine-resistant Plasmodium falciparum K1 after 72 hrs by SYBR Green-1 dye-based fluorescence assay. Type of data set: functional, organism-based. The conditions noted are these: K1, 72 h.
For data set [7], the system named is Plasmodium yoelii. The experiment in a line: Antimalarial activity against chloroquine-resistant Plasmodium yoelii N-67 infected in Swiss mouse assessed as mouse survival at 50 mg/kg, po qd for 4 days measured on day 28. Type of data set: functional, organism-based. Set-up: dose 50 mg/kg.
For data set [8], the system named is Plasmodium yoelii. The experiment in a line: Antimalarial activity against chloroquine-resistant Plasmodium yoelii N-67 infected in Swiss mouse assessed as inhibition of parasitemia at 50 mg/kg, po qd for 4 days relative to control. The conditions noted are these: N-67, 96 h. Type of data set: functional.
Data set [9] in a line: Inhibition of Plasmodium falciparum transketolase using fructose-6-phosphate as substrate by spectrophotometric analysis.

Molecules are shown by their SMILES. Converted amounts (≈) assume the structure as drawn. The source made the active and inactive calls. The calls are words filed in the database; no cut-off is given here.

`Fc1ccc(Nc2nc(NCCN3CCOCC3)nc(Nc3ccc(Nc4ccnc5cc(Cl)ccc45)cc3)n2)cc1`: the selectivity ratio in data set [1] came out at 1330. In addition, the IC50 (usually the concentration needed to halve the response being measured) in the data set with Plasmodium falciparum [2] was 0.00981 µg/mL (≈ 0.0167 µM); in the data set with Plasmodium yoelii [4], 2.38 µg/mL (≈ 4.06 µM); with Plasmodium falciparum [6], 0.0954 µg/mL (≈ 0.163 µM). Also, in the data set on Plasmodium yoelii [3], the outcome was inactive. Besides, the inhibition in vivo – broadly, the change of the read-out against control, counted positive when it falls – at 100 mg/kg with Plasmodium yoelii [5] worked out at 100%.
For the compound `CN1CCN(c2nc(Nc3ccc(Nc4ccnc5cc(Cl)ccc45)cc3)nc(Nc3cccc(F)c3)n2)CC1`, the selectivity ratio in data set [1] is 55.3. The IC50 with Plasmodium falciparum [2] was determined as 0.0228 µg/mL (≈ 0.041 µM); in the data set with Plasmodium yoelii [4], 3.03 µg/mL (≈ 5.45 µM); with Plasmodium falciparum [6] it was 0.00154 µg/mL (≈ 0.00277 µM). Further, the outcome in the data set on Plasmodium yoelii [7] and with Plasmodium yoelii [3] was inactive. In addition, the inhibition in vivo at 50 mg/kg in the data set with Plasmodium yoelii [8] worked out at 99.8%. Further, in the data set on Plasmodium yoelii [5], the inhibition in vivo at 100 mg/kg is 100%.
Consider `CCN1CCN(c2nc(Nc3ccc(Nc4ccnc5cc(Cl)ccc45)cc3)nc(Nc3ccc(OC)c(OC)c3)n2)CC1`, for which the 50% inhibitory concentration (IC50) in data set [9] came to 85.5 µM; in the data set on Plasmodium falciparum [2] it was 0.00258 µg/mL (≈ 0.00421 µM); in the data set on Plasmodium yoelii [4] it was 2.45 µg/mL (≈ 4 µM); in the data set with Plasmodium falciparum [6], 0.0023 µg/mL (≈ 0.00376 µM). Further, the selectivity ratio in data set [1] is 624.
Turning to `Fc1cccc(Nc2nc(NCCCN3CCOCC3)nc(Nc3ccc(Nc4ccnc5cc(Cl)ccc45)cc3)n2)c1`, the IC50 in data set [9] stood at 76.7 µM; in the data set on Plasmodium falciparum [2] it was 0.00136 µg/mL (≈ 0.00227 µM); in the data set on Plasmodium yoelii [4], 2.06 µg/mL (≈ 3.43 µM); with Plasmodium falciparum [6] it was 0.00571 µg/mL (≈ 0.00952 µM). Besides, the selectivity ratio in data set [1] was determined as 551. In the data set on Plasmodium yoelii [3], the result was inactive. Also, in the data set with Plasmodium yoelii [5], the inhibition in vivo at 100 mg/kg was 100%.
Turning to `CCN1CCN(c2nc(Nc3ccc(Nc4ccnc5cc(Cl)ccc45)cc3)nc(N3CCCc4ccccc43)n2)CC1`, the selectivity ratio in data set [1] was determined as 36. Moreover, the IC50 turned out to be 0.0208 µg/mL (≈ 0.0352 µM) with Plasmodium falciparum [2], 6.55 µg/mL (≈ 11.1 µM) in the data set on Plasmodium yoelii [4] and 0.0116 µg/mL (≈ 0.0197 µM) in the data set on Plasmodium falciparum [6]. Also, the outcome with Plasmodium yoelii [7] and with Plasmodium yoelii [3] was inactive. The inhibition in vivo at 50 mg/kg in the data set with Plasmodium yoelii [8] was determined as 77.8%. In addition, in the data set on Plasmodium yoelii [5], the inhibition in vivo at 100 mg/kg worked out at 99%.
For `Clc1cccc(Nc2nc(NCCCN3CCOCC3)nc(Nc3ccc(Nc4ccnc5cc(Cl)ccc45)cc3)n2)c1`, the IC50 in data set [9] is 76.4 µM; in the data set on Plasmodium falciparum [2] it was 0.00382 µg/mL (≈ 0.0062 µM); in the data set on Plasmodium yoelii [4], 4.56 µg/mL (≈ 7.4 µM); with Plasmodium falciparum [6], 0.00882 µg/mL (≈ 0.0143 µM). The selectivity ratio in data set [1] was determined as 180.
In the case of `CN1CCN(c2nc(Nc3ccc(Nc4ccnc5cc(Cl)ccc45)cc3)nc(Nc3cccc(Cl)c3)n2)CC1`, the IC50 worked out at 80.2 µM in data set [9], 0.00241 µg/mL (≈ 0.00421 µM) in the data set on Plasmodium falciparum [2], 2.42 µg/mL (≈ 4.23 µM) in the data set with Plasmodium yoelii [4] and 0.0169 µg/mL (≈ 0.0295 µM) in the data set with Plasmodium falciparum [6]. Further, the selectivity ratio in data set [1] stood at 361.
For the compound `CCN1CCN(c2nc(Nc3ccc(Cl)cc3)nc(Nc3ccc(Nc4ccnc5cc(Cl)ccc45)cc3)n2)CC1`, in data set [1], the selectivity ratio amounted to 67.6. Moreover, the IC50 in the data set with Plasmodium falciparum [2] is 0.00414 µg/mL (≈ 0.00706 µM); in the data set with Plasmodium yoelii [4], 2.05 µg/mL (≈ 3.5 µM); in the data set on Plasmodium falciparum [6] it was 0.00981 µg/mL (≈ 0.0167 µM).
In [9], `O=C(O)C(=O)Cc1ccc(O)cc1` [4-HYDROXYPHENYLPYRUVIC ACID] displayed an IC50 of 103 µM.
Take `CN1CCN(c2nc(Nc3ccc(F)cc3)nc(Nc3ccc(Nc4ccnc5cc(Cl)ccc45)cc3)n2)CC1`: in data set [1], the selectivity ratio was 122. Further, the IC50 in the data set on Plasmodium falciparum [2] is 0.00897 µg/mL (≈ 0.0161 µM); in the data set with Plasmodium yoelii [4], 2.08 µg/mL (≈ 3.74 µM); with Plasmodium falciparum [6], 0.00206 µg/mL (≈ 0.0037 µM). Besides, in the data set on Plasmodium yoelii [3], the result was inactive. In the data set on Plasmodium yoelii [5], the inhibition in vivo at 100 mg/kg amounted to 100%.
Turning to `Fc1ccc(Nc2nc(Nc3ccc(Nc4ccnc5cc(Cl)ccc45)cc3)nc(N3CCCCC3)n2)cc1`, in [1], the selectivity ratio was found to be 520. Moreover, the results for the IC50 in the data set on Plasmodium falciparum [2], in the data set with Plasmodium yoelii [4] and in the data set with Plasmodium falciparum [6] were 0.0417 µg/mL (≈ 0.0772 µM), 2.43 µg/mL (≈ 4.49 µM) and over 0.5 µg/mL, respectively.
In the same order, the values of `Clc1ccc2c(Nc3ccc(Nc4nc(NCCCN5CCOCC5)nc(N5CCc6ccccc6C5)n4)cc3)ccnc2c1` are 436, 0.0203 µg/mL (≈ 0.0327 µM), 2.09 µg/mL (≈ 3.36 µM) and 0.0555 µg/mL (≈ 0.0892 µM).
With `Clc1ccc2c(Nc3ccc(Nc4nc(NCCN5CCOCC5)nc(N5CCCc6ccccc65)n4)cc3)ccnc2c1`, in [1], the selectivity ratio came to 588. For the same compound, the results for the IC50 in the data set on Plasmodium falciparum [2], in the data set on Plasmodium yoelii [4] and in the data set with Plasmodium falciparum [6] were 0.0174 µg/mL (≈ 0.0285 µM), 2.31 µg/mL (≈ 3.8 µM) and 0.275 µg/mL (≈ 0.452 µM), respectively.
As for `Fc1cccc(Nc2nc(Nc3ccc(Nc4ccnc5cc(Cl)ccc45)cc3)nc(N3CCCCC3)n2)c1`, the selectivity ratio in data set [1] is 75.1. Further, the values for the IC50 with Plasmodium falciparum [2], with Plasmodium yoelii [4] and with Plasmodium falciparum [6] were 0.129 µg/mL (≈ 0.238 µM), 3.1 µg/mL (≈ 5.73 µM) and 0.107 µg/mL (≈ 0.197 µM), respectively.
On to `CCN1CCN(c2nc(Nc3ccc(Nc4ccnc5cc(Cl)ccc45)cc3)nc(Nc3cccc(Cl)c3)n2)CC1`, for which the IC50 is 74.5 µM in data set [9], 0.00211 µg/mL (≈ 0.0036 µM) in the data set with Plasmodium falciparum [2], 2.06 µg/mL (≈ 3.51 µM) in the data set on Plasmodium yoelii [4] and 0.00496 µg/mL (≈ 0.00846 µM) with Plasmodium falciparum [6]. The selectivity ratio in data set [1] is 318.
In the same order, the values of `COc1ccc(Nc2nc(NCCCN3CCOCC3)nc(Nc3ccc(Nc4ccnc5cc(Cl)ccc45)cc3)n2)cc1` are 72.7 µM, 0.00381 µg/mL (≈ 0.00622 µM), 2.34 µg/mL (≈ 3.82 µM), 0.155 µg/mL (≈ 0.253 µM) and 1310.
On to `CN1CCN(c2nc(Nc3ccc(Cl)cc3)nc(Nc3ccc(Nc4ccnc5cc(Cl)ccc45)cc3)n2)CC1`, for which the selectivity ratio in data set [1] turned out to be 66.7. For the same compound, the IC50 in the data set with Plasmodium falciparum [2] stood at 0.0078 µg/mL (≈ 0.0136 µM); in the data set on Plasmodium yoelii [4], 2.17 µg/mL (≈ 3.79 µM); with Plasmodium falciparum [6], 0.0352 µg/mL (≈ 0.0614 µM). Also, the outcome in the data set with Plasmodium yoelii [3] was inactive. Moreover, the inhibition in vivo at 100 mg/kg with Plasmodium yoelii [5] was 100%.
On to `CCN1CCN(c2nc(Nc3ccc(Nc4ccnc5cc(Cl)ccc45)cc3)nc(Nc3cccc(F)c3)n2)CC1`, for which the figures for the IC50 (in data set [9]; in the data set on Plasmodium falciparum [2]; in the data set on Plasmodium yoelii [4]) were 75 µM, 0.00247 µg/mL (≈ 0.00433 µM) and 2.06 µg/mL (≈ 3.61 µM), respectively. In addition, the selectivity ratio in [1] is 149.
As to `CCN1CCN(c2nc(Nc3ccc(Nc4ccnc5cc(Cl)ccc45)cc3)nc(N3CCOCC3)n2)CC1`, in data set [1], the selectivity ratio is 431. In addition, the half-inhibitory concentration (IC50) in the data set on Plasmodium falciparum [2] was found to be 0.00216 µg/mL (≈ 0.00396 µM); in the data set with Plasmodium yoelii [4], 4.17 µg/mL (≈ 7.64 µM); with Plasmodium falciparum [6], 0.0147 µg/mL (≈ 0.0269 µM). For the same compound, the outcome in the data set with Plasmodium yoelii [7] and in the data set with Plasmodium yoelii [3] was inactive. Besides, in the data set on Plasmodium yoelii [8], the inhibition in vivo at 50 mg/kg was found to be 93.5%. Further, the inhibition in vivo at 100 mg/kg in the data set with Plasmodium yoelii [5] is 100%.
As for `Clc1ccc2c(Nc3ccc(Nc4nc(NCCCN5CCOCC5)nc(N5CCOCC5)n4)cc3)ccnc2c1`, in [1], the selectivity ratio is 3320. The IC50 was found to be 0.00276 µg/mL (≈ 0.00479 µM) in the data set on Plasmodium falciparum [2], 2.98 µg/mL (≈ 5.17 µM) in the data set with Plasmodium yoelii [4] and 0.00266 µg/mL (≈ 0.00462 µM) in the data set on Plasmodium falciparum [6]. The result with Plasmodium yoelii [7] was inactive. Further, the inhibition in vivo at 50 mg/kg in the data set on Plasmodium yoelii [8] turned out to be 98.4%. In addition, the inhibition in vivo at 100 mg/kg in the data set on Plasmodium yoelii [5] was 100%.
`Fc1cccc(Nc2nc(NCCN3CCOCC3)nc(Nc3ccc(Nc4ccnc5cc(Cl)ccc45)cc3)n2)c1`: the selectivity ratio in [1] turned out to be 122. Moreover, the concentration for half-maximal inhibition (IC50) in the data set on Plasmodium falciparum [2] came out at 0.04 µg/mL (≈ 0.0683 µM); in the data set with Plasmodium yoelii [4], 2.7 µg/mL (≈ 4.61 µM); with Plasmodium falciparum [6], 0.0781 µg/mL (≈ 0.133 µM).
In the case of `COc1ccc(Nc2nc(NCCCN3CCOCC3)nc(Nc3ccc(Nc4ccnc5cc(Cl)ccc45)cc3)n2)cc1OC`, in [1], the selectivity ratio came out at 413. For the same compound, the results for the IC50 in the data set on Plasmodium falciparum [2], in the data set with Plasmodium yoelii [4] and in the data set on Plasmodium falciparum [6] were 0.00458 µg/mL (≈ 0.00713 µM), 2.3 µg/mL (≈ 3.58 µM) and 0.0026 µg/mL (≈ 0.00405 µM), respectively.
